Where “and” joins values, the source holds several entries; their conditions need not be identical. Equal values may be shown once. Where a name gives a salt, the structure may show the parent alone.
Biological target: T1, CMV polymerase (Human cytomegalovirus, UniProt P08546)
T1 construct: made in house; host or cells: recombinant baculovirus-infected SF-9 cells
Assay: HCMV polymerase assay, scintillation proximity assay (SPA), modified version
Assay type: biochemical
Details: CMV polymerase IC50 (μM), modified HCMV polymerase SPA assay: compounds diluted in 100% DMSO, 4.5 mM DTT in polymerase buffer, different lot of CMV polymerase
Description: The HCMV polymerase assay is performed using a scintillation proximity assay (SPA) as described in several references, such as N. D. Cook, et al., Pharmaceutical Manufacturing International, pages 49-53 (1992); K. Takeuchi, Laboratory Practice, September issue (1992); U.S. Pat. No. 4,568,649 (1986); which are incorporated by reference herein. Reactions are performed in 96-well plates. The assay is conducted in 100 μl volume with 5.4 mM HEPES (pH 7.5), 11.7 mM KCl, 4.5 mM MgCl2, 0.36 mg/ml BSA, and 90 nM ^3H-dTTP. Assays are run with and without CHAPS, (3-[(3-Cholamidopropyl)-dimethylammonio]-1-propane-sulfonate) at a final concentration of 2 mM. HCMV polymerase is diluted in enzyme dilution buffer containing 50% glycerol, 250 mM NaCl, 10 mM HEPES (pH 7.5), 100 μg/ml BSA, and 0.01% sodium azide. The HCMV polymerase, which is expressed in recombinant baculovirus-infected SF-9 cells and purified according to literature procedures, is added at 10% (or 10 μl) of the final reaction volume, i.e., 100 μl. Compounds are diluted in 50% DMSO and 10 μl are added to each well. Control wells contain an equivalent concentration of DMSO. Unless noted otherwise, reactions are initiated via the addition of 6 nM biotinylated poly(dA)-oligo(dT) template/primer to reaction mixtures containing the enzyme, substrate, and compounds of interest. Plates are incubated in a 25 C. or 37 C. H2O bath and terminated via the addition of 40 μl/reaction of 0.5 M EDTA (pH 8) per well. Reactions are terminated within the time-frame during which substrate incorporation is linear and varied depending upon the enzyme and conditions used, i.e., 30 min. for HCMV polymerase. Ten μl of streptavidin-SPA beads (20 mg/ml in PBS/10% glycerol) are added following termination of the reaction. Plates are incubated 10 min. at 37 C., then equilibrated to room temperature, and counted on a Packard Topcount. Linear regressions are performed and IC50's are calculated using computer software.
A modified version of the above HCMV polymerase assay is performed as described above, but with the following changes: Compounds are diluted in 100% DMSO until final dilution into assay buffer. In the previous assay, compounds are diluted in 50% DMSO. 4.5 mM dithiotherotol (DTT) is added to the polymerase buffer.

T1 sequence (P08546 whole entry): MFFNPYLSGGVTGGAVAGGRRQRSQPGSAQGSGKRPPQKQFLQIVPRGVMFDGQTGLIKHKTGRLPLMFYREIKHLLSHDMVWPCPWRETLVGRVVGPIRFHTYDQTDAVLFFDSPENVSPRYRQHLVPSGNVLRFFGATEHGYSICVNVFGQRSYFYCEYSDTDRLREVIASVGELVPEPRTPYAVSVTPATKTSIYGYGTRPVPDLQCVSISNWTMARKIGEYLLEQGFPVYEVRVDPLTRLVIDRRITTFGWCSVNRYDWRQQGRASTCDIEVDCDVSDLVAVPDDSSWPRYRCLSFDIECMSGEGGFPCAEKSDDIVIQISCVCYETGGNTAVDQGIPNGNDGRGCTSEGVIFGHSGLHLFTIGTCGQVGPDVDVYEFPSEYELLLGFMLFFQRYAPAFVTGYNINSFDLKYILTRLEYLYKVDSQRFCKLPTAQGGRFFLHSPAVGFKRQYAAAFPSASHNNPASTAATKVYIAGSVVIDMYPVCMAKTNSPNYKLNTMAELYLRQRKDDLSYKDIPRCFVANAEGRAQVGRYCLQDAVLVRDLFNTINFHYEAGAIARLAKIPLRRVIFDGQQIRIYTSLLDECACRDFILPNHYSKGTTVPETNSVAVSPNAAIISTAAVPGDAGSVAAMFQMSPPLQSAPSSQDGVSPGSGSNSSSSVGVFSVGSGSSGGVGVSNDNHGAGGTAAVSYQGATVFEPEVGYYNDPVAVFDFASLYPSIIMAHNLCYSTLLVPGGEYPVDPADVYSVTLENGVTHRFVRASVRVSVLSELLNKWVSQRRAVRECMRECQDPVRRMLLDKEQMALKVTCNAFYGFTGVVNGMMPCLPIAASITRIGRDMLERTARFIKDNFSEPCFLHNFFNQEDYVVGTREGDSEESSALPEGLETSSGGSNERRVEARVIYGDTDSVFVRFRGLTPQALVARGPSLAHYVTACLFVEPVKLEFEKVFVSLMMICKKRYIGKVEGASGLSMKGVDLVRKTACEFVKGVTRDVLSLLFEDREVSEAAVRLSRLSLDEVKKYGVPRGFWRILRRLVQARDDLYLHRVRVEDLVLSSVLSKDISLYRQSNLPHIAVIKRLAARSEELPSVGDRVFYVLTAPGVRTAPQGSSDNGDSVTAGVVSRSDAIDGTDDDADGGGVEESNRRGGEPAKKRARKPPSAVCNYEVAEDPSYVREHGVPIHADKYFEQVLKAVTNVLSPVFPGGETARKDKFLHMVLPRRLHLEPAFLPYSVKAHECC

Which IC50 does the source give for COP(=O)(OC)OCC1Cn2cc(C(=O)NCc3ccc(Cl)cc3)c(=O)c3cc(CN4CCOCC4)cc(c32)O1 (centres unmarked) [Example 26, [6-{[(4-Chlorobenzyl)amino]carbonyl}-9-(4-morpholinylmethyl)-7-oxo-2,3-dihydro-7H-[1,4]oxazino[2,3,4-ij]quinolin-2-yl]methyl dimethyl phosphate] here?
The IC50 was 0.53 µM.

Same assay, conditions: modified HCMV polymerase SPA assay: compounds diluted in 100% DMSO, 4.5 mM DTT in polymerase buffer, different lot of CMV polymerase; read-out: CMV polymerase IC50

With O=C(NCc1ccc(Cl)cc1)c1cn2c3c(cc(CN4CCOCC4)cc3c1=O)OC(CO)C2 (single isomer, unassigned) [Example 20, N-(4-Chlorobenzyl)-2-(R or S)-(hydroxymethyl)-9-(4-morpholinylmethyl)-7-oxo-2,3-dihydro-7H-[1,4]oxazino[2,3,4-ij]quinoline-6-carboxamide] as the compound, how does the IC50 read?
Its IC50 is 0.35 µM.

Which IC50 does the source give for O=C(NCc1ccc(Cl)cc1)c1cn2c3c(cc(CN4CCOCC4)cc3c1=O)OC(CO)C2 (single isomer, unassigned) [Example 21, N-(4-Chlorobenzyl)-2-(R or S)-(hydroxymethyl)-9-(4-morpholinylmethyl)-7-oxo-2,3-dihydro-7H-[1,4]oxazino[2,3,4-ij]quinoline-6-carboxamide] here?
The IC50 was 0.67 µM.

For O=C(NCc1ccc(Cl)cc1)c1cn2c3c(cc(CN4CCOCC4)cc3c1=O)OC(CNCc1cccnc1)C2 (single isomer, unassigned) [Example 22, N-(4-chlorobenzyl)-9-(4-morpholinylmethyl)-7-oxo-2-(R or S)-{[(3-pyridinylmethyl)amino]methyl}-2,3-dihydro-7H-[1,4]oxazino[2,3,4-ij]quinoline-6-carboxamide], which IC50 is on record?
Its IC50 is 0.3 µM.

For O=C(NCc1ccc(Cl)cc1)c1cn2c3c(cc(CN4CCOCC4)cc3c1=O)OC(CNCc1cccnc1)C2 (single isomer, unassigned) [Example 23, N-(4-Chlorobenzyl)-9-(4-morpholinylmethyl)-7-oxo-2-(R or S)-{[3-pyridinylmethyl)amino]methyl}-2,3-dihydro-7H-[1,4]oxazino[2,3,4-ij]quinoline-6-carboxamide], which IC50 is on record?
Its IC50 is 1.1 µM.

Which IC50 does the source give for O=C(NCc1ccc(Cl)cc1)c1cn2c3c(cc(CN4CCOCC4)cc3c1=O)OC(c1ccccn1)C2 (single isomer, unassigned) [Example 57, N-(4-Chlorobenzyl)-9-(morpholin-4-ylmethyl)-7-oxo-2-(R or S)-pyridin-2-yl-2,3-dihydro-7H-[1,4]oxazino[2,3,4-ij]quinoline-6-carboxamide] here?
Its IC50 is 0.68 µM and 0.32 µM.

Which IC50 does the source give for O=C(NCc1ccc(Cl)cc1)c1cn2c3c(cc(CN4CCOCC4)cc3c1=O)OC(c1cccnc1)C2 (single isomer, unassigned) [Example 58, N-(4-Chlorobenzyl)-9-(morpholin-4-ylmethyl)-7-oxo-2-(R or S)-pyridin-3-yl-2,3-dihydro-7H-[1,4]oxazino[2,3,4-ij]quinoline-6-carboxamide] here?
Its IC50 is 0.57 µM and 0.27 µM.

For O=C(NCc1ccc(Cl)cc1)c1cn2c3c(cc(CN4CCOCC4)cc3c1=O)OC(CO)C2 (centres unmarked) [Example 1, N-(4-Chlorobenzyl)-2-(hydroxymethyl)-9-(4-morpholinylmethyl)-7-oxo-2,3-dihydro-7H-[1,4]oxazino[2,3,4-ij]quinoline-6-carboxamide], which IC50 is on record?
Its IC50 is 0.61 µM.

With O=C(NCc1ccc(Cl)cc1)c1cn2c3c(cc(CN4CCOCC4)cc3c1=O)OC(CNCC(O)CO)C2 (centres unmarked) [Example 6, N-(4-Chlorobenzyl)-2-{[(2,3-dihydroxypropyl)amino]methyl}-9-(4-morpholinylmethyl)-7-oxo-2,3-dihydro-7H-[1,4]oxazino[2,3,4-ij]quinoline-6-carboxamide] as the compound, how does the IC50 read?
Its IC50 is 0.66 µM.

O=C(NCc1ccc(Cl)cc1)c1cn2c3c(cc(CN4CCOCC4)cc3c1=O)OC(CNCCO)C2 (centres unmarked) [Example 7, N-(4-Chlorobenzyl)-2-{[(2-hydroxyethyl)amino]methyl}-9-(4-morpholinylmethyl)-7-oxo-2,3-dihydro-7H-[1,4]oxazino[2,3,4-ij]quinoline-6-carboxamide] was tested. Which IC50 did it give?
The IC50 was 0.67 µM.

For O=C(NCc1ccc(Cl)cc1)c1cn2c3c(cc(CN4CCOCC4)cc3c1=O)OC(CN(CCO)CCO)C2 (centres unmarked) [Example 9, 2-{[bis(2-Hydroxyethyl)amino]methyl}-N-(4-chlorobenzyl)-9-(4-morpholinylmethyl)-7-oxo-2,3-dihydro-7H-[1,4]oxazino[2,3,4-ij]quinoline-6-carboxamide], which IC50 is on record?
Its IC50 is 0.59 µM.

O=C(NCc1ccc(Cl)cc1)c1cn2c3c(cc(CN4CCOCC4)cc3c1=O)OC(CNCc1ccccn1)C2 (centres unmarked) [Example 10, N-(4-Chlorobenzyl)-9-(4-morpholinylmethyl)-7-oxo-2-{[(2-pyridinylmethyl)amino]methyl}-2,3-dihydro-7H-[1,4]oxazino[2,3,4-ij]quinoline-6-carboxamide] was tested. Which IC50 did it give?
The IC50 was 0.62 µM.

Which IC50 does the source give for O=C(NCc1ccc(Cl)cc1)c1cn2c3c(cc(CN4CCOCC4)cc3c1=O)OC(CNCc1cccnc1)C2 (centres unmarked) [Example 11, N-(4-Chlorobenzyl)-9-(4-morpholinylmethyl)-7-oxo-2-{[(3-pyridinylmethyl)amino]methyl}-2,3-dihydro-7H-[1,4]oxazino[2,3,4-ij]quinoline-6-carboxamide] here?
Its IC50 is 0.54 µM.

How did the IC50 turn out when O=C(NCc1ccc(Cl)cc1)c1cn2c3c(cc(CN4CCOCC4)cc3c1=O)OC(CSCCO)C2 (centres unmarked) [Example 16, N-(4-Chlorobenzyl)-2-{[(2-hydroxyethyl)sulfanyl]methyl}-9-(4-morpholinylmethyl)-7-oxo-2,3-dihydro-7H-[1,4]oxazino[2,3,4-ij]quinoline-6-carboxamide] was run?
Its IC50 is 0.42 µM.

For Cn1ccnc1SCC1Cn2cc(C(=O)NCc3ccc(Cl)cc3)c(=O)c3cc(CN4CCOCC4)cc(c32)O1 (centres unmarked) [Example 17], which IC50 is on record?
Its IC50 is 0.27 µM.

With O=C(NCc1ccc(Cl)cc1)c1cn2c3c(cc(CN4CCOCC4)cc3c1=O)OC(CSCC(O)CO)C2 (centres unmarked) [Example 19, N-(4-Chlorobenzyl)-2-{[(2,3-dihydroxypropyl)sulfanyl]methyl}-9-(4-morpholinylmethyl)-7-oxo-2,3-dihydro-7H-[1,4]oxazino[2,3,4-ij]quinoline-6-carboxamide] as the compound, how does the IC50 read?
The IC50 was 0.57 µM.

With CN(CCS(=O)(=O)O)C(=O)CCCCCCC(=O)OCC1Cn2cc(C(=O)NCc3ccc(Cl)cc3)c(=O)c3cc(CN4CCOCC4)cc(c32)O1 (centres unmarked) [Example 25, 2-[(8-{[6-{[(4-Chlorobenzyl)amino]carbonyl}-9-(4-morpholinylmethyl)-7-oxo-2,3-dihydro-7H-[1,4]oxazino[2,3,4-ij]quinolin-2-yl]methoxy}-8-oxooctanoyl)(methyl)amino]ethanesulfonic acid sodium salt] as the compound, how does the IC50 read?
The IC50 was 1.3 µM.

O=C(NCc1ccc(Cl)cc1)c1cn2c3c(cc(CN4CCOCC4)cc3c1=O)OC(c1ccccc1)C2 (centres unmarked) [Example 27, N-(4-Chlorobenzyl)-9-(4-morpholinylmethyl)-7-oxo-2-phenyl-2,3-dihydro-7H-[1,4]oxazino[2,3,4-ij]quinoline-6-carboxamide] was tested. Which IC50 did it give?
Its IC50 is 0.92 µM.

How did the IC50 turn out when O=C(NCc1ccc(Cl)cc1)c1cn2c3c(cc(CN4CCOCC4)cc3c1=O)OCC2c1ccccc1 (centres unmarked) [Example 29, N-(4-Chlorobenzyl)-9-(4-morpholinylmethyl)-7-oxo-3-phenyl-2,3-dihydro-7H-[1,4]oxazino[2,3,4-ij]quinoline-6-carboxamide] was run?
The IC50 was 1 µM.

For O=C(NCc1ccc(Cl)cc1)c1cn2c3c(cc(CN4CCOCC4)cc3c1=O)OCC2CN1CCOCC1 (centres unmarked) [Example 30, N-(4-Chlorobenzyl)-3,9-bis(4-morpholinylmethyl)-7-oxo-2,3-dihydro-7H-[1,4]oxazino[2,3,4-ij]quinoline-6-carboxamide], which IC50 is on record?
The IC50 was 0.97 µM.

For O=C(NCc1ccc(Cl)cc1)c1cn2c3c(cc(C#CCO)cc3c1=O)OCC2(CO)CO [Example 31, N-(4-Chlorobenzyl)-3,3-bis(hydroxymethyl)-9-(3-hydroxy-1-propynyl)-7-oxo-2,3-dihydro-7H-[1,4]oxazino[2,3,4-ij]quinoline-6-carboxamide], which IC50 is on record?
The IC50 was 5 µM.

Which IC50 does the source give for O=C(NCc1ccc(Cl)cc1)c1cn2c3c(cc(CCCO)cc3c1=O)OCC2(CO)CO [Example 32, N-(4-Chlorobenzyl)-3,3-bis(hydroxymethyl)-9-(3-hydroxypropyl)-7-oxo-2,3-dihydro-7H-[1,4]oxazino[2,3,4-ij]quinoline-6-carboxamide] here?
The IC50 was 3 µM.

For O=C(NCc1ccc(Cl)cc1)c1cn2c3c(cc(CN4CCOCC4)cc3c1=O)OC(c1ccccn1)C2 (centres unmarked) [Example 33, N-(4-Chlorobenzyl)-9-(4-morpholinylmethyl)-7-oxo-2-(2-pyridinyl)-2,3-dihydro-7H1-[1,4]oxazino[2,3,4-ij]quinoline-6-carboxamide], which IC50 is on record?
Its IC50 is 0.52 µM.

Source: patent US6673793B2, “Oxazinoquinolones useful for the treatment of viral infections” (Pharmacia & Upjohn Co., priority 2000, dated 2004)
